Measurements reported in US12544395B2, “Combination compositions comprising a beta-lactamase inhibitor and uses thereof” (priority 2018, dated 2026).
≈ marks a conversion by molar mass, not a printed value. One block for each molecule: values may come before it.

Assays:
[1] = tested on: K. pneumoniae KI (KCl); assay: Broth microdilution MIC (strain enzymes: TEM-10); assay type: cell-based; settings: alone
[2] = tested on: K. pneumoniae 329633; assay: Broth microdilution MIC (strain enzymes: SHV-5, TEM-1); assay type: cell-based; settings: alone
[3] = tested on: E. coli SI-PBLII; assay: Broth microdilution MIC (strain enzymes: CTX-M2, TEM-1); assay type: cell-based; settings: alone
[4] = tested on: K. pneumoniae ESBL 8 #1; assay: Broth microdilution MIC (strain enzymes: TEM-1, SHV-12); assay type: cell-based; settings: alone
[5] = tested on: K. pneumoniae 153239; assay: Broth microdilution MIC (strain enzymes: SHV-11, TEM-1); assay type: cell-based; settings: alone
[6] = tested on: K. oxytoca 496 #2; assay: Broth microdilution MIC (strain enzymes: SHV-105, TEM-1); assay type: cell-based; settings: alone
[7] = tested on: E. coli 3174; assay: Broth microdilution MIC (strain enzymes: TEM-1, CTXM-15); assay type: cell-based; settings: alone
[8] = tested on: panel of ESBL-producing Enterobacteriaceae (40 strains); assay: Broth microdilution MIC50/MIC90 summary over the panel; assay type: cell-based; settings: No BLI
[9] = tested on: E. coli SI-V502; assay: Broth microdilution MIC (strain enzymes: TEM-29, CTX-M15); assay type: cell-based; settings: alone
[10] = tested on: K. pneumoniae 304487; assay: Broth microdilution MIC (strain enzymes: SHV-12,TEM-1); assay type: cell-based; settings: alone
[11] = tested on: E. coli 25922; assay: Broth microdilution MIC (strain enzymes: None detected); assay type: cell-based; settings: alone
[12] = tested on: E. coli SI-NO36; assay: Broth microdilution MIC (strain enzymes: SHV-11, TEM-1); assay type: cell-based; settings: alone
[13] = tested on: E. coli 3327; assay: Broth microdilution MIC (strain enzymes: TEM-1, SHV-12); assay type: cell-based; settings: alone
[14] = tested on: E. coli SI-AIRT-4; assay: Broth microdilution MIC (strain enzymes: TEM-1); assay type: cell-based; settings: alone
[15] = tested on: E. coli 1924; assay: Broth microdilution MIC (strain enzymes: TEM-12); assay type: cell-based; settings: alone
[16] = tested on: E. coli 2806; assay: Broth microdilution MIC (strain enzymes: SHV-12, TEM-1); assay type: cell-based; settings: alone
[17] = tested on: K. pneumoniae ESBL 8 #2; assay: as above; assay type: cell-based; settings: alone
[18] = tested on: K. pneumoniae 115468; assay: Broth microdilution MIC (strain enzymes: TEM-1); assay type: cell-based; settings: alone
[19] = tested on: K. pneumoniae 11/23 LF#2; assay: microbe, parasite or virus in culture; assay type: cell-based; settings: alone
[20] = tested on: K. oxytoca 176877; assay: Broth microdilution MIC (strain enzymes: SHV-105); assay type: cell-based; settings: alone
[21] = tested on: K. pneumoniae ESBL 10; assay: Broth microdilution MIC (strain enzymes: SHV-12, TEM-1); assay type: cell-based; settings: alone
[22] = Excipient screening: solubility in SEDDS excipients; assay type: physicochemical; settings: thermodynamic from solid
Method: The solubility of Compound 1-ethanolate was evaluated in a series of pharmaceutically acceptable excipients that are commonly used to prepare self-emulsifying drug delivery systems (SEDDS) for oral drug delivery. This class of formulation results in a solid solution of drug substance and excipients that enable the delivery of the drug substance and prevents precipitation upon contact with aqueous environments (i.e. the stomach). The indicated quantity of Compound 1-ethanolate was weighed into a 3 mL screw top glass vial outfitted with a magnetic stir bar. The vial was transferred to a controlled temperature heating block and 100 μL aliquots of each excipient was added with stirring. After each addition, the sample was evaluated for dissolution of the drug substance and additional aliquots of excipient were added until a clear, colorless solution was obtained. Table 22 summarizes the solubility screening for 25 excipients.

Compound: CC1=C(C(=O)O)N2C(=O)[C@@H](NC(=O)[C@H](N)c3ccccc3)[C@H]2SC1 [Cephalexin, cefalexin, reference compound]
MIC of cefalexin (LEX) [1]: 1 µg/mL | MIC of cefalexin (LEX) [2]: 16 µg/mL | MIC of cefalexin (LEX) [3]: 2 µg/mL | MIC of cefalexin (LEX) [4]: 16 µg/mL | MIC of cefalexin (LEX) [5]: 2 µg/mL | MIC of cefalexin (LEX) [6]: 16 µg/mL | MIC of cefalexin (LEX) [7]: 1 µg/mL | Cephalexin MIC50 [8]: >32 µg/mL | Cephalexin MIC90 [8]: >32 µg/mL | MIC of cefalexin (LEX) [9]: 2 µg/mL | MIC of cefalexin (LEX) [10]: 8 µg/mL | MIC of cefalexin (LEX) [11]: 0.5 µg/mL | MIC of cefalexin (LEX) [12]: 4 µg/mL | MIC of cefalexin (LEX) [13]: 16 µg/mL | MIC of cefalexin (LEX) [14]: 0.25 µg/mL | MIC of cefalexin (LEX) [15]: 2 µg/mL | MIC of cefalexin (LEX) [16]: 4 µg/mL | MIC of cefalexin (LEX) [17]: 16 µg/mL | MIC of cefalexin (LEX) [18]: 8 µg/mL | MIC of cefalexin (LEX) [19]: 2 µg/mL | MIC of cefalexin (LEX) [20]: 8 µg/mL | MIC of cefalexin (LEX) [21]: 16 µg/mL

solubility ([22]; 50 °C, oil or lipid, Labrafil M1944CS (Oleoyl polyoxyl-6 glycerides)): > 140 mg/mL | solubility ([22]; 50 °C, oil or lipid, Labrafil M2125C5 (Linoleoyl polyoxyl-6 glycerides)): > 152 mg/mL | solubility ([22]; 50 °C, oil or lipid, Plurol Oleique CC497 (Polyglyceryl-3 dioleate)): > 375 mg/mL | solubility ([22]; 50 °C, organic solvent or mixture, Gelucire 44/14 (Lauroyl polyoxyl-32 glycerides)): > 284 mg/mL | solubility ([22]; 50 °C, organic solvent or mixture, Kolliphor EL (Polyoxyl 35 hydrogenated castor oil)): > 376 mg/mL | solubility ([22]; 50 °C, organic solvent or mixture, Kolliphor RH (PEG-40 Hydrogenated Castor Oil)): ~172 mg/mL (≈ 410 mM) | solubility ([22]; 50 °C, organic solvent or mixture, Labrasol (Caprylocaproyl polyoxyl-8 glycerides)): > 585 mg/mL | solubility ([22]; 50 °C, organic solvent or mixture, Polysorbate 80 (Polyoxyethylene (20) sorbitan monooleate)): > 238 mg/mL | solubility ([22]; Capmul MCM (Caprylic/capric mono- & diglycerides), 50 °C, oil or lipid): > 351 mg/mL | solubility ([22]; Ethanol, 50 °C, organic solvent or mixture): > 568 mg/mL | solubility ([22]; Glycerol, 50 °C, organic solvent or mixture): < 55.8 mg/mL | solubility ([22]; Lauroglycol (Propylene Glycol Monolaurate), neat excipient, 50 °C, oil or lipid): > 292 mg/mL | solubility ([22]; Maisine CC (glyceryl monolinoleate), 50 °C, oil or lipid): > 368 mg/mL | solubility ([22]; Myrj 52 (PEG-40 Stearate), neat excipient, 50 °C, organic solvent or mixture): > 277 mg/mL | solubility ([22]; PEG-400, 50 °C, organic solvent or mixture, PEG-400, 50° C.): > 498 mg/mL | solubility ([22]; PEG-1500, 50 °C, organic solvent or mixture, PEG-1500, 50° C.): > 382 mg/mL | solubility ([22]; PEG-3350, 65 °C, organic solvent or mixture, PEG-3350, 65° C.): > 280 mg/mL | solubility ([22]; Peceol (Glyceryl monooleate), neat excipient, 50 °C, oil or lipid): > 413 mg/mL | solubility ([22]; Phosal 50 PG (50% PC and propylene glycol), 50 °C, oil or lipid): > 419 mg/mL | solubility ([22]; Poloxamer 188, neat excipient, 65 °C, organic solvent or mixture, Poloxamer 188): > 225 mg/mL | solubility ([22]; Propylene Glycol, 50 °C, organic solvent or mixture): > 1210 mg/mL | solubility ([22]; Span 20 (Sorbitan monolaurate), neat excipient, 50 °C, organic solvent or mixture): > 227 mg/mL | solubility ([22]; Span 80, 50 °C, organic solvent or mixture, Span 80, 50° C.): > 276 mg/mL | solubility ([22]; TPGS, neat excipient, 50 °C, organic solvent or mixture): > 229 mg/mL | solubility ([22]; Triacetin (glycerin triacetate), 50 °C, organic solvent or mixture): > 84.2 mg/mL
Compound: CCOB1Oc2c(cccc2C(=O)OCOC(=O)C(CC)CC)C[C@@H]1NC(=O)CC [Compound 1-ethanolate, ((2-ethylbutanoyl)oxy)methyl (R)-2-ethoxy-3-propionamido-3,4-dihydro-2H-benzo[e][1,2]oxaborinine-8-carboxylate]
